In DBAASP one finds MIC data, which are given here for five compounds.

Among the test systems are Enterococcus faecalis VR; Enterococcus faecium VR; Enterococcus faecalis; Staphylococcus aureus MR; Enterococcus faecium; Escherichia coli UB1005; Bacillus cereus C737; Staphylococcus simulans; Staphylococcus sciuri; Microsporum canis; Proteus mirabilis.
Holding throughout (assay): ≥ marks a high value that may be exact or a test limit, other limits are often not marked, values filed in µg/mL are converted to µM
The test system of experiment [1] is Bacillus subtilis KCTC 3068.
For experiment [2], the system named is Staphylococcus aureus KCTC 1621.
The test system of experiment [3] is Escherichia coli KCTC 1682.
Experiment [4] has as its system Pseudomonas aeruginosa KCTC 1637.
Experiment [5] deals with Staphylococcus epidermidis KCTC 1917.
Experiment [6] relates to Salmonella typhimurium KCTC 1926.
Experiment [7] concerns Pseudomonas aeruginosa PAO1.
Experiment [8] relates to Staphylococcus haemolyticus.
For experiment [9], the system named is Pseudomonas aeruginosa CICC 21636.
Experiment [10] deals with Staphylococcus cohnii MW767053.
In experiment [11] the test system is Saccharomyces cerevisiae CICC 1002.
Experiment [12] concerns Staphylococcus aureus CICC 10306.
In experiment [13] the test system is Staphylococcus pseudintermedius MW767056.
Experiment [14] deals with Escherichia coli CICC 10293.
The subject of experiment [15] is Listeria innocua CICC 10417.
Experiment [16] concerns Enterobacter cloacae CICC 21539.
The test system of experiment [17] is Trichophyton mentagrophytes.
In experiment [18] the test system is Bacillus subtilis CICC 10034.
For experiment [19], the system named is Microsporum canis MW768151.
For experiment [20], the system named is Aspergillus niger CICC 2124.
The test system of experiment [21] is Candida albicans CICC 1965.
The subject of experiment [22] is Salmonella enterica subsp. enterica serovar Paratyphi B CICC 10437.
Experiment [23] concerns Serratia marcescens ATCC 4112.
The subject of experiment [24] is Staphylococcus pseudintermedius.
The subject of experiment [25] is Staphylococcus aureus CICC 10384.
The test system of experiment [26] is Escherichia coli ATCC 23506.
Experiment [27] relates to Streptococcus pneumoniae ATCC 49619.
The test system of experiment [28] is Acinetobacter baumannii ATCC 19606.
The test system of experiment [29] is Aspergillus niger ATCC 16404.
Experiment [30] deals with Candida glabrata ATCC 15126.
Experiment [31] relates to Candida albicans ATCC 10231.
Experiment [32] concerns Staphylococcus aureus ATCC 9144.
Experiment [33] has as its system Enterococcus faecalis PCM 2673.
For experiment [34], the system named is Pseudomonas aeruginosa ATCC 9027.
Experiment [35] deals with Klebsiella pneumoniae ATCC 700603.
The test system of experiment [36] is Staphylococcus aureus ATCC 25923.
For experiment [37], the system named is Escherichia coli ATCC 25922.
The test system of experiment [38] is Pseudomonas aeruginosa ATCC 27853.
The subject of experiment [39] is Vibrio anguillarum ATCC 43305.
Experiment [40] relates to Bacillus subtilis ATCC 6051.

Converted amounts (≈) assume the structure as drawn.

As a reminder, the MIC is the smallest concentration in the dilution series that meets the test's criterion for growth inhibition. High values mean a need for much substance, low ones inhibition by little substance. As to `CC(C)C[C@H](NC(=O)[C@H](CO)NC(=O)[C@H](CC(C)C)NC(=O)[C@H](CS)NC(=O)[C@H](CC(N)=O)NC(=O)[C@H](C)NC(=O)[C@H](C)N)C(=O)NCC(=O)N[C@@H](CCCCN)C(=O)N[C@@H](C)C(N)=O` [AANCLSLGKA], the MIC in experiment [1], in experiment [2], in experiment [3], in [4], in experiment [5] and in experiment [6] was 30 µM (≈ 28.4 µg/mL) each time. Also, the MIC in the experiment with Enterococcus faecalis VR, in the experiment with Enterococcus faecium VR, in the experiment with Enterococcus faecalis, in the experiment on Staphylococcus aureus MR and in the experiment with Enterococcus faecium was 30 µM (≈ 28.4 µg/mL) in each case.

On to `CC[C@H](C)[C@H](NC(=O)[C@H](CC(=O)O)NC(=O)[C@H](Cc1ccccc1)NC(=O)[C@H](CC(C)C)NC(=O)CN)C(=O)N[C@H](C(=O)N[C@@H](CCCCN)C(=O)N[C@@H](CCCCN)C(=O)N[C@H](C(=O)N[C@H](C(=O)NCC(=O)N[C@@H](C)C(=O)N[C@H](C(=O)NCC(=O)N[C@@H](CO)C(=O)N[C@@H](CC(C)C)C(N)=O)C(C)C)C(C)C)C(C)C)C(C)C` [GLFDIVKKVVGAVGSL], for which the MIC was ≥ 40 µM against Escherichia coli UB1005, ≥ 79.9 µM against Bacillus cereus C737 and > 79.9 µM in experiment [7].

As for `CC[C@H](C)[C@H](NC(=O)[C@@H](NC(=O)[C@H](CO)NC(=O)[C@H](Cc1ccccc1)NC(=O)[C@H](CC(C)C)NC(=O)[C@H](CCCN=C(N)N)NC(=O)[C@@H](NC(=O)[C@H](CC(C)C)NC(=O)CN)[C@@H](C)O)C(C)C)C(=O)N[C@@H](CCCCN)C(=O)O` [GLTRLFSVIK], the MIC in experiment [8] is ≥ 226 µM; in [9], 7.06 µM (≈ 8 µg/mL); in experiment [10], ≥ 56.5 µM; in [11], ≥ 56.5 µM; in experiment [12] it was 14.1 µM (≈ 16 µg/mL); in [13], 28.2 µM (≈ 32 µg/mL). Besides, the MIC in experiment [14] is 14.1 µM (≈ 16 µg/mL); against Staphylococcus simulans, ≥ 226 µM; in [15], 28.2 µM (≈ 32 µg/mL); in experiment [16], 14.1 µM (≈ 16 µg/mL); against Staphylococcus sciuri, ≥ 226 µM; in experiment [17], 0.882 µM (≈ 1 µg/mL). In addition, the MIC is 28.2 µM (≈ 32 µg/mL) in experiment [18]; 0.882 µM (≈ 1 µg/mL) in [19]; 0.624 µM (≈ 0.707 µg/mL) in the experiment on Microsporum canis; ≥ 226 µM with Proteus mirabilis; ≥ 56.5 µM in experiment [20]; 28.2 µM (≈ 32 µg/mL) in experiment [21]. For the same compound, the MIC in [22] was 28.2 µM (≈ 32 µg/mL); in experiment [23], 7.06 µM (≈ 8 µg/mL); in [24] it was ≥ 56.5 µM; in [25] it was 14.1 µM (≈ 16 µg/mL).

Turning to `CC[C@H](C)[C@H](NC(=O)[C@H](CC(C)C)NC(=O)[C@H](CCCN=C(N)N)NC(=O)[C@H](Cc1c[nH]c2ccccc12)NC(=O)[C@@H]1CCCN1C(=O)[C@H](Cc1c[nH]c2ccccc12)NC(=O)[C@H](Cc1c[nH]c2ccccc12)NC(=O)[C@@H]1CCCN1C(=O)[C@H](Cc1c[nH]c2ccccc12)NC(=O)[C@H](CCCN=C(N)N)NC(=O)[C@H](CCCN=C(N)N)NC(=O)[C@@H](N)CCCCN)C(N)=O` [KRRWPWWPWRLI], the MIC was 2.25 µM (≈ 4 µg/mL) in experiment [26]; 4.49 µM (≈ 8 µg/mL) in experiment [27]; 8.99 µM (≈ 16 µg/mL) in experiment [28]; ≥ 36 µM in experiment [29]; ≥ 36 µM in [30]; 18 µM (≈ 32 µg/mL) in experiment [31]. Besides, the MIC in [32] amounted to 4.49 µM (≈ 8 µg/mL); in [33] it was 8.99 µM (≈ 16 µg/mL); in [34] it was 2.25 µM (≈ 4 µg/mL); in experiment [35], 2.25 µM (≈ 4 µg/mL); in experiment [36], 4.49 µM (≈ 8 µg/mL); in experiment [37] it was 4.49 µM (≈ 8 µg/mL).

For the compound `CC(C)C[C@H](N)C(=O)N[C@@H](CCCN=C(N)N)C(=O)N[C@@H](Cc1c[nH]c2ccccc12)C(=O)N[C@H](C(=O)N1CCC[C@H]1C(=O)N[C@H](C(=O)N1CCC[C@H]1C(=O)N[C@@H](CO)C(=O)N[C@@H](Cc1ccc(O)cc1)C(=O)N1CCC[C@H]1C(=O)N[C@@H](CCCN=C(N)N)C(=O)N[C@@H](Cc1ccc(O)cc1)C(=O)N1CCC[C@H]1C(=O)N[C@H](C(=O)N[C@@H](CCCN=C(N)N)C(=O)N[C@@H](CO)C(=O)N[C@@H](CCCN=C(N)N)C(=O)NCC(=O)N[C@@H](CO)C(=O)N[C@@H](CCCN=C(N)N)C(=O)N[C@@H](Cc1c[nH]c2ccccc12)C(=O)N[C@@H](CO)C(=O)N[C@@H](CCCN=C(N)N)C(N)=O)[C@@H](C)O)[C@@H](C)O)[C@@H](C)O` [LRWTPTPSYPRYPTRSRGSRWSR], the MIC is 8 µM (≈ 22.9 µg/mL) in experiment [28]; > 32 µM in experiment [38]; > 32 µM in experiment [36]; ≥ 32 µM in experiment [39]; ≥ 32 µM in [40]; 11.3 µM (≈ 32.4 µg/mL) in [37].
